pIC50: −log10 of the molar value. Read-outs that look alike come from different tables or passages of the source.
Tests used:
native MDH = target: T1, native MDH (Sus scrofa, UniProt P00346); test: Native MDH enzymatic activity counter-screen; format: biochemical, pig
T1 construct: soluble pig heart MDH from Roche, product #10127248001; purchased Roche 10127248001; host or cells: pig heart
T1 sequence (P00346 25-338): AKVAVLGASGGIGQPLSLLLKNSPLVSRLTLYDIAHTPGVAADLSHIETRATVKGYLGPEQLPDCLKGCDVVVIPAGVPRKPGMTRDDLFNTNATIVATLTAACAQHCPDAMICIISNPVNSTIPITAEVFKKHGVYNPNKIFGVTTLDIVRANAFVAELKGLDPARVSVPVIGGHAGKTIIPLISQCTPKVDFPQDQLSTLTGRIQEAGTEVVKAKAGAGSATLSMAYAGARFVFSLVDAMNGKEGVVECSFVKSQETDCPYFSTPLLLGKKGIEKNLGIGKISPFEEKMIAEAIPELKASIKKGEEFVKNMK
How it was run: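 GroEL/ES-refolded MDH (45 min, 37 °C, no compound) quenched with EDTA before compound addition, so only refolded enzyme is exposed. Activity started with 20 mM sodium mesoxalate and 2.4 mM NADH stock (50 mM Tris pH 7.4, 50 mM KCl, 1 mM DTT); NADH A340 followed to ~90% consumption.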

GroEL/ES = target: T2, GroEL/ES (Escherichia coli, UniProt P0A6F5); test: GroEL/ES-mediated dMDH refolding assay; format: biochemical, E. coli
T2 construct: made in house; host or cells: GroEL in E. coli DH5a; GroES in E. coli BL21 (DE3)
T2 sequence (P0A6F5 2-548): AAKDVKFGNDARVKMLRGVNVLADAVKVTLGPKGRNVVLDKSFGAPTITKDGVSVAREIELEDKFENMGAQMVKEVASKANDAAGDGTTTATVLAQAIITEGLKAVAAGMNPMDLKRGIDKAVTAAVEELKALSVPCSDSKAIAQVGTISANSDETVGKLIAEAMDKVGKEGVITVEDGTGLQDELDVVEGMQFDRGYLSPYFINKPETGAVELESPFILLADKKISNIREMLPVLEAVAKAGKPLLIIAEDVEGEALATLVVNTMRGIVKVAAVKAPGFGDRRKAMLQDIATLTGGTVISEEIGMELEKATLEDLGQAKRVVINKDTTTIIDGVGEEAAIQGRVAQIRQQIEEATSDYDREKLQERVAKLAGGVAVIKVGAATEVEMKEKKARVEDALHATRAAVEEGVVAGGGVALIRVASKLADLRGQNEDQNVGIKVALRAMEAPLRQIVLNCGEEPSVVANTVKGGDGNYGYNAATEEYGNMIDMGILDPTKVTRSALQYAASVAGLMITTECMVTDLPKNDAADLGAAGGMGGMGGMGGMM
How it was run: (§1)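 Pre-formed chaperonin–denatured pig heart MDH complexes (50 nM GroEL or HSP60, 60 nM GroES or HSP10, 12 nM dMDH) refolded with 1 mM ATP and compound (100 μM–46 nM) at 37 °C, ~20-40 min for GroEL/ES or ~40-60 min for HSP60/10. After EDTA quench, MDH activity was read as NADH loss at A340. IC50 came from variable-slope regression.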

HSP60/10 = target: T3, HSP60/10 (Homo sapiens, UniProt P10809); test: HSP60/10-mediated dMDH refolding assay; format: biochemical
T3 construct: octa-Histidine (His8) tag, TEV-cleavable (N, cleaved yes); made in house; host or cells: HSP60 in Rosetta 2 (DE3) E. coli; HSP10 in Rosetta 2 (DE3) pLysS
T3 sequence (P10809 27-573): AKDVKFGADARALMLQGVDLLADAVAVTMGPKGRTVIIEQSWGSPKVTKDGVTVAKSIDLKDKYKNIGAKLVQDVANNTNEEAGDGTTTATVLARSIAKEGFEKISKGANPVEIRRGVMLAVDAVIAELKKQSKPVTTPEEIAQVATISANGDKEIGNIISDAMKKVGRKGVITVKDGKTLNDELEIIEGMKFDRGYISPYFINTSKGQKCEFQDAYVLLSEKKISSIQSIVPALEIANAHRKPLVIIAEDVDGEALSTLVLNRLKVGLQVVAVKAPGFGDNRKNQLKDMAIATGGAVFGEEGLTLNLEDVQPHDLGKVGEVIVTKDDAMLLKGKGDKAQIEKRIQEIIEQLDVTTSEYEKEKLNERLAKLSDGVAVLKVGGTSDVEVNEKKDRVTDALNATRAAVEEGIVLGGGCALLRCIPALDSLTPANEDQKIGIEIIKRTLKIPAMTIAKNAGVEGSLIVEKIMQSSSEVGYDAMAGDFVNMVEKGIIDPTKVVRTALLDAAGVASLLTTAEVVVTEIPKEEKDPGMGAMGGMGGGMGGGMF
How it was run: as §1

[1] = Table 3, compounds added after refolding and EDTA quench, read-out: Biochemical Assay IC50 Native MDH Activity
[2] = Table 3, 37° C., 1 mM ATP, read-out: Biochemical Assay IC50 HSP60/10-dMDH Refolding
[3] = Table 1, compounds added after refolding and EDTA quench, read-out: Biochemical Assay IC50 Native MDH Activity
[4] = Table 1, 37° C., 1 mM ATP, read-out: Biochemical Assay IC50 HSP60/10-dMDH Refolding

COc1ccc(Cl)cc1C(=O)Nc1ccc(CC#N)cc1 [Compound 110, 5-chloro-N-(4-(cyanomethyl)phenyl)-2-methoxybenzamide]
pIC50 (native MDH; [1]): < 4.20
pIC50 (GroEL/ES): 4.27
pIC50 (HSP60/10; [2]): < 4.00

N#CCc1ccc(NC(=O)c2cc(Cl)ccc2O)cc1 [Compound 111, 5-chloro-N-(4-(cyanomethyl)phenyl)-2-hydroxybenzamide]
pIC50 (native MDH; [1]): < 4.20
pIC50 (GroEL/ES): < 4.00
pIC50 (HSP60/10; [2]): < 4.00

COc1ccc(NC(=O)c2cc(Cl)ccc2OC)cc1 [Compound 112, 5-chloro-2-methoxy-N-(4-methoxyphenyl)benzamide]
pIC50 (native MDH; [1]): < 4.20
pIC50 (GroEL/ES): < 4.00
pIC50 (HSP60/10; [2]): < 4.00

COc1ccc(NC(=O)c2cc(Cl)ccc2O)cc1 [Compound 113, 5-chloro-2-hydroxy-N-(4-methoxyphenyl)benzamide]
pIC50 (native MDH; [1]): < 4.20
pIC50 (GroEL/ES): < 4.00
pIC50 (HSP60/10; [2]): < 4.00

COc1ccc(Cl)cc1C(=O)Nc1ccc(O)cc1 [Compound 114, 5-chloro-N-(4-hydroxyphenyl)-2-methoxybenzamide]
pIC50 (native MDH; [1]): < 4.20
pIC50 (GroEL/ES): < 4.00
pIC50 (HSP60/10; [2]): < 4.00

O=C(Nc1ccc(O)cc1)c1cc(Cl)ccc1O [Compound 115, 5-chloro-2-hydroxy-N-(4-hydroxyphenyl)benzamide]
pIC50 (native MDH; [1]): < 4.20
pIC50 (GroEL/ES): < 4.00
pIC50 (HSP60/10; [2]): < 4.00

COc1ccc(Cl)cc1C(=O)Nc1ccccc1 [Compound 116, 5-chloro-2-methoxy-N-phenylbenzamide]
pIC50 (native MDH; [1]): < 4.20
pIC50 (GroEL/ES): < 4.00
pIC50 (HSP60/10; [2]): < 4.00

O=C(Nc1ccccc1)c1cc(Cl)ccc1O [Compound 117, 5-chloro-2-hydroxy-N-phenylbenzamide]
pIC50 (native MDH; [1]): < 4.20
pIC50 (GroEL/ES): < 4.00
pIC50 (HSP60/10; [2]): < 4.00

O=C(Nc1ccc([N+](=O)[O-])cc1Cl)c1cc(Cl)ccc1O [Niclosamide, reference compound]
pIC50 (native MDH; [3]): < 4.20
pIC50 (native MDH; [1]): < 4.20
pIC50 (GroEL/ES): < 4.00
pIC50 (GroEL/ES; read-out: Biochemical Assay IC50 GroEL/ES-dMDH Refolding, Table 3, 37° C., 1 mM ATP): < 4.00
pIC50 (HSP60/10; [4]): < 4.00
pIC50 (HSP60/10; [2]): < 4.00

CC(=O)Oc1ccccc1C(=O)Nc1ncc([N+](=O)[O-])s1 [Nitazoxanide, reference compound]
pIC50 (native MDH; [3]): < 4.20
pIC50 (GroEL/ES): < 4.00
pIC50 (HSP60/10; [4]): < 4.00

O=C(Nc1cc(Cl)cc(Cl)c1O)c1c(O)c(Cl)cc(Cl)c1Cl [Oxyclosanide, reference compound]
pIC50 (native MDH; [3]): 4.27
pIC50 (GroEL/ES): 4.35
pIC50 (HSP60/10; [4]): 4.55

O=C(Nc1ccc(Oc2ccc(Cl)cc2)c(Cl)c1)c1cc(I)cc(I)c1O [Rafoxanide, reference compound]
pIC50 (native MDH): 4.77
pIC50 (GroEL/ES; Table 1, 37° C., 1 mM ATP, read-out: Biochemical Assay IC50 GroEL/ES-dMDH Refolding): 5.42
pIC50 (HSP60/10): 5.57

O=C(Nc1ncc([N+](=O)[O-])s1)c1ccccc1O [Tizoxanide, reference compound]
pIC50 (native MDH; [3]): < 4.20
pIC50 (GroEL/ES): < 4.00
pIC50 (HSP60/10; [4]): < 4.00
